Data: PubChem BioAssay AID720624 (Broad Institute, 2013)
Inconclusive results are not listed.

Test system: SNB-75 viability, CellTiter-Glo ATP luminescence, 8-48 h
Assay: cytotoxicity in SNB-75 CNS cells – cell-based, CellTiter-Glo ATP luminescence, several timepoints, dry powder, mechanism study for HRAS target identification, late-stage follow-up (AID 720624)

Structure (SMILES)	AC50 (measured here: 8 h treatment) [nM]	AC50 (measured here: 24 h treatment) [nM]	AC50 (measured here: 48 h treatment) [nM]
COc1ccc(N(C(=O)CCl)C(C(=O)NCCc2ccccc2)c2cccs2)cc1Cl (stereo not given)	298	246	319
CC(C)(C)OC(=O)NCCOCCOCCOc1ccc(N(C(=O)CCl)C(C(=O)NCCc2ccccc2)c2cccs2)cc1Cl (stereo not given)	787	398	1030
Cc1onc(C(=O)N2CCN(C(c3ccc(Cl)cc3)c3ccc(Cl)cc3)CC2)c1[N+](=O)[O-]	629	490	1050
C#CCCCC(=O)NCCOCCOCCOc1ccc(N(C(=O)CCl)C(C(=O)NCCc2ccccc2)c2cccs2)cc1Cl (stereo not given)	3810	2480	4780
COC(=O)c1ccc([C@@H]2c3[nH]c4ccccc4c3C[C@@H](C(=O)OC)N2C(=O)CCl)cc1	479	224	418
